Assay results as given in US8916711B2, “Imidazothiazole-chalcone derivatives as potential anticancer agents and process for the preparation thereof” (Council of Scientific and Industrial Research, priority 2009, dated 2014).
Read-outs that look alike come from different tables or passages of the source.

Legend:
Format in all cases: cell-based
SK-MEL-2 = assay: NCI in vitro cytotoxicity (SRB, 48 h), Melanoma panel; conditions: Homo sapiens; SK-MEL-2, Melanoma; 48 h exposure
MALME-3M = assay: as above; conditions: Homo sapiens, 48 h exposure
KM12 = assay: NCI in vitro cytotoxicity (SRB, 48 h), Colon panel; conditions: Homo sapiens, 48 h exposure
T-47D = assay: NCI in vitro cytotoxicity (SRB, 48 h), Breast panel; conditions: Homo sapiens, T47D, 48 h exposure
MDA-MB-468 = assay: as above; conditions: Homo sapiens; MDA-MB-468, Breast; 48 h exposure
SNB-19 = assay: NCI in vitro cytotoxicity (SRB, 48 h), CNS panel; conditions: Homo sapiens; SNB-19, CNS; 48 h exposure
NCI-H522 = assay: NCI in vitro cytotoxicity (SRB, 48 h), Non-small cell lung panel; conditions: Homo sapiens, 48 h exposure
MDA-MB-231/ATCC = assay: NCI in vitro cytotoxicity (SRB, 48 h), Breast panel; conditions: Homo sapiens; for GI50: Breast, 48 h exposure; for IC50: Table 4, read-out: Comparative efficacy
Procedure: (§1) The imidazothiazole-chalcone hybrids 7a, 7e, 7f, 8f and 19e have been tested against sixty human tumour cell lines derived from nine cancer types (leukemia, non-small cell lung cancer, colon cancer, CNS cancer, melanoma, ovarian cancer, renal cancer, prostate cancer and breast cancer) as per NCI protocol. For each compound, dose response curves for individual cell lines have been measured at a minimum of five concentrations at 10 fold dilutions. A protocol of 48 h continuous drug exposure has been used, and a sulforhodamine B (SRB) protein assay was used to estimate cell viability or growth. The concentration for 50% cell growth inhibition (GI50), total cell growth inhibition (TGI, 0% growth) and 50% cell death (LC50, […]) compared with the control has been calculated (Table-1).

MCF7 = assay: as above; conditions: Homo sapiens; for IC50: MCF7, MCF-7, Table 4, read-out: Comparative efficacy; for GI50: MCF7, Breast, 48 h exposure
Procedure: as §1

SW-620 = assay: NCI in vitro cytotoxicity (SRB, 48 h), Colon panel; conditions: Homo sapiens; SW-620, Colon; 48 h exposure
HOP-92 = assay: NCI in vitro cytotoxicity (SRB, 48 h), Non-small cell lung panel; conditions: Homo sapiens; for IC50: HOP-92, Table 4, read-out: Comparative efficacy
OVCAR-4 = assay: NCI in vitro cytotoxicity (SRB, 48 h), Ovarian panel; conditions: Homo sapiens; OVCAR-4, Ovarian; 48 h exposure
NCI/ADR-RES = assay: as above; conditions: Homo sapiens, 48 h exposure
NCI-H322M = assay: NCI in vitro cytotoxicity (SRB, 48 h), Non-small cell lung panel; conditions: Homo sapiens, 48 h exposure
A498 = assay: NCI in vitro cytotoxicity (SRB, 48 h), Renal panel; conditions: Homo sapiens, 48 h exposure
SK-OV-3 = assay: NCI in vitro cytotoxicity (SRB, 48 h), Ovarian panel; conditions: Homo sapiens; SK-OV-3, Ovarian; 48 h exposure
CNS cancer cell lines = assay: NCI in vitro cytotoxicity, whole panel; conditions: Homo sapiens; for CC50: read-out: Log10 LC50 (converted)
HT29 = assay: NCI in vitro cytotoxicity (SRB, 48 h), Colon panel; conditions: Homo sapiens, HT-29, 48 h exposure
SR = assay: NCI in vitro cytotoxicity (SRB, 48 h), Leukemia panel; conditions: Homo sapiens, 48 h exposure
Procedure: as §1

HL-60(TB) = assay: as above; conditions: Homo sapiens, 48 h exposure
Procedure: as §1

EKVX = assay: NCI in vitro cytotoxicity (SRB, 48 h), Non-small cell lung panel; conditions: Homo sapiens, 48 h exposure
Leukemia cell lines = assay: NCI in vitro cytotoxicity, whole panel; conditions: Homo sapiens; for CC50: read-out: Log10 LC50 (converted)
Colon cancer cell lines = assay: NCI in vitro cytotoxicity, whole panel; conditions: Homo sapiens; for CC50: read-out: Log10 LC50 (converted)
HCC-2998 = assay: NCI in vitro cytotoxicity (SRB, 48 h), Colon panel; conditions: Homo sapiens
[1] = tested on: sixty human tumour cell lines; assay: NCI in vitro cytotoxicity, all panels; conditions: for CC50: read-out: Log10 LC50 mean graph midpoint (MG_MID) (converted)
UACC-62 = assay: NCI in vitro cytotoxicity (SRB, 48 h), Melanoma panel; conditions: Homo sapiens; UACC-62, Melanoma; 48 h exposure
PC-3 = assay: NCI in vitro cytotoxicity (SRB, 48 h), Prostate panel; conditions: Homo sapiens; PC-3, Prostate; 48 h exposure
UO-31 = assay: NCI in vitro cytotoxicity (SRB, 48 h), Renal panel; conditions: Homo sapiens; UO-31, Renal; 48 h exposure
SN12C = assay: NCI in vitro cytotoxicity (SRB, 48 h), Renal panel; conditions: Homo sapiens, 48 h exposure
BT-549 = assay: NCI in vitro cytotoxicity (SRB, 48 h), Breast panel; conditions: Homo sapiens; BT-549, Breast; 48 h exposure
SK-MEL-5 = assay: NCI in vitro cytotoxicity (SRB, 48 h), Melanoma panel; conditions: Homo sapiens; SK-MEL-5, Melanoma; 48 h exposure
DU-145 = assay: NCI in vitro cytotoxicity (SRB, 48 h), Prostate panel; conditions: Homo sapiens; DU-145, Prostate; 48 h exposure
[2] = HOP-92, Non-small cell lung, 48 h exposure
[3] = CNS cell, exposure period of at least 48 hrs, read-out: GI50, range over CNS cell lines
[4] = CNS, average of six to eight cell lines, read-out: Log10 GI50 (converted)
[5] = CNS, average of six to eight cell lines
[6] = Leukemia, average of six to eight cell lines, read-out: Log10 GI50 (converted)
[7] = Leukemia, average of six to eight cell lines
[8] = exposure period of at least 48 hrs, read-out: GI50, range over leukemia cell lines
[9] = Colon, average of six to eight cell lines, read-out: Log10 GI50 (converted)
[10] = Colon, average of six to eight cell lines
[11] = exposure period of at least 48 hrs, read-out: GI50, range over colon cell lines
[12] = Homo sapiens, sixty cell lines, nine panels, read-out: GI50 against sixty cell lines in nine cell panels
[13] = human tumour cell lines, read-out: Log10 GI50 mean graph midpoint (MG_MID) (converted)

## COc1ccc(-c2nc3sccn3c2/C=C/C(=O)c2cc(OC)c(OC)c(OC)c2)cc1 [Compound 7a, (E)-3-(6-(4-methoxyphenyl)imidazo[2,1-b]thiazol-5-yl)-1-(3,4,5-trimethoxyphenyl) prop-2-en-1-one]
SK-MEL-2
  GI50: 2420 nM
MALME-3M
  GI50: 5420 nM
KM12
  GI50: 2650 nM
T-47D
  GI50: 2260 nM
MDA-MB-468
  GI50: 2960 nM
SNB-19
  GI50: 3540 nM
NCI-H522
  GI50: 1970 nM
MDA-MB-231/ATCC
  GI50: 2550 nM
  IC50: 2550 nM
MCF7
  IC50: 2020 nM
  GI50: 2020 nM
SW-620
  GI50: 3160 nM
HOP-92; [2]
  GI50: 240 nM
HOP-92; HOP-92, non-small cell lung
  GI50: 240 nM
HOP-92
  IC50: 240 nM
OVCAR-4
  GI50: 4050 nM
NCI/ADR-RES
  GI50: 2570 nM
NCI-H322M
  GI50: 3700 nM
A498
  GI50: 2990 nM
SK-OV-3
  GI50: 3280 nM
CNS cancer cell lines; [3]
  GI50: 1660 to 3540 nM
CNS cancer cell lines; [4]
  GI50: 2630 nM
CNS cancer cell lines; [5]
  CC50: ≥ 100000 nM
HT29
  GI50: 3120 nM
SR
  GI50: 2330 nM
HL-60(TB)
  GI50: 1660 nM
EKVX
  GI50: 3120 nM
Leukemia cell lines; [6]
  GI50: 2240 nM
Leukemia cell lines; [7]
  CC50: ≥ 100000 nM
Leukemia cell lines; [8]
  GI50: 1660 to 3080 nM
Colon cancer cell lines; [9]
  GI50: 2630 nM
Colon cancer cell lines; [10]
  CC50: 72400 nM
Colon cancer cell lines; [11]
  GI50: 1770 to 3450 nM
HCC-2998; HCC-2998, Colon, 48 h exposure
  GI50: 1770 nM
HCC-2998; HCC-2998, colon
  GI50: 1770 nM
[1]; [12]
  GI50: < 9000 nM
[1]; human tumour cell lines
  Log10 TGI mean graph midpoint (MG_MID): −4.76
  in vitro cytotoxicity, in words: significant cytotoxicity
  CC50: 87100 nM
[1]; [13]
  GI50: 2340 nM
UACC-62
  GI50: 2080 nM
PC-3
  GI50: 3100 nM
UO-31
  GI50: 1120 nM
SN12C
  GI50: 2880 nM
BT-549
  GI50: 3460 nM
SK-MEL-5
  GI50: 1300 nM
DU-145
  GI50: 2620 nM

## COc1cc(C(=O)/C=C/c2c(-c3ccc(F)cc3)nc3sccn23)cc(OC)c1OC [Compound 7e, (E)-3-(6-(4-fluorophenyl)imidazo[2,1-b]thiazol-5-yl)-1-(3,4,5-trimethoxyphenyl)prop-2-en-1-one]
SK-MEL-2
  GI50: 2520 nM
MALME-3M
  GI50: 8270 nM
KM12
  GI50: 2300 nM
T-47D
  GI50: 3250 nM
MDA-MB-468
  GI50: 3170 nM
SNB-19
  GI50: 3730 nM
NCI-H522
  GI50: 2320 nM
MDA-MB-231/ATCC
  GI50: 2490 nM
  IC50: 2490 nM
MCF7
  IC50: 2240 nM
  GI50: 2240 nM
SW-620
  GI50: 2990 nM
HOP-92; [2]
  GI50: 1050 nM
HOP-92; HOP-92, non-small cell lung
  GI50: 1050 nM
HOP-92
  IC50: 1050 nM
OVCAR-4
  GI50: 3780 nM
NCI/ADR-RES
  GI50: 2100 nM
NCI-H322M
  GI50: 3630 nM
A498
  GI50: 2730 nM
SK-OV-3
  GI50: 3020 nM
CNS cancer cell lines; [3]
  GI50: 1740 to 3730 nM
CNS cancer cell lines; [4]
  GI50: 2340 nM
CNS cancer cell lines; [5]
  CC50: 52500 nM
HT29
  GI50: 2840 nM
SR
  GI50: 1730 nM
HL-60(TB)
  GI50: 1770 nM
EKVX
  GI50: 2740 nM
Leukemia cell lines; [6]
  GI50: 1860 nM
Leukemia cell lines; [7]
  CC50: 70800 nM
Leukemia cell lines; [8]
  GI50: 1550 to 2230 nM
Colon cancer cell lines; [9]
  GI50: 2630 nM
Colon cancer cell lines; [10]
  CC50: 38000 nM
Colon cancer cell lines; [11]
  GI50: 2110 to 2990 nM
HCC-2998; HCC-2998, Colon, 48 h exposure
  GI50: 2110 nM
[1]; [12]
  GI50: < 9000 nM
[1]; human tumour cell lines
  Log10 TGI mean graph midpoint (MG_MID): −5.02
  in vitro cytotoxicity, in words: significant cytotoxicity
  CC50: 58900 nM
[1]; [13]
  GI50: 2240 nM
UACC-62
  GI50: 1820 nM
PC-3
  GI50: 3430 nM
UO-31
  GI50: 2030 nM
SN12C
  GI50: 1880 nM
BT-549
  GI50: 3760 nM
SK-MEL-5
  GI50: 1450 nM
DU-145
  GI50: 2450 nM
